According to patent publication US4083947A, “Organ visualization” (The Radiochemical Centre Limited, priority 1975, dated 1978):
Like-named read-outs stand apart in the source and are kept apart here.

Tests used:
[1] = cited from earlier work
[2] = cited from earlier work; remark: listed apart in the source
[3] = Tissue distribution in a female dog, 6th day post-injection; assay type: in vivo
Procedure: 250μCi of 6β-methylselenomethyl-19-norcholest-5(10)-en-[…]-^75 Se was intravenously injected into a female dog (13.7 kg). The dog was housed in a metabolism cage for the daily collection of urine and faeces. On the 6th day post-injection the animal was sacrificed (i.v. sodium pento-barbitone)and tissue and organ samples collected. The weighed samples were then assayed for radioactive content.
The resulting tissue distribution (expressed in terms of % dose kg/g) is tabulated below: […]

[4] = Adrenal scanning/visualization in patients, comparison of 75Se compound with 19-iodocholesterol-131I; assay type: in vivo, humans
Procedure: (§1) Two patients with Cushing Syndrome were injected intravenously with 500μCi of 6β-methylselenomethyl-19-norcholest-5(10)-en-3β-ol-^75 Se formulated in normal saline stabilized with polysorbate. Repeated gamma camera scans and whole body-, urine- and blood measurements were made during a period of two weeks post injection. In one patient a maximum uptake of 17μCi in the left adrenal region was measured, the removed adrenal cortex adenoma, weight 66 g, containing 15μCi of ^75 Se.
Furthermore, the ^75 Se compound allowed scans to be taken at an earlier point of time after injection than was the case with 19-iodocholesterol-^131 I (2-3 days in contrast to 6-10 days p.i.).

[5] = Tissue distribution of selenium-75-labelled sterols in rats, sixth day post-injection; assay type: in vivo, rats of the C.F.Y. strain; conditions: tail vein, dose: 1, 7: 40 μCi, 6: 50 μCi, 3: 30 μCi, 4: 1.5 μCi, 5: 10 μCi, 8: 6.3 μCi; for % dose kg./g. in Ovaries: female rats; for % dose kg./g. in Adrenals / % dose kg./g. in Blood / % dose kg./g. in Kidneys / % dose kg./g. in Liver / % dose kg./g. in Muscle: male and female rats; for % dose kg./g. in Testes: male rats; for Concentration Ratio; Adrenals: Kidneys / Concentration Ratio; Adrenals: Liver / Concentration Ratio; Adrenals: Muscle / Concentration Ratio; Adrenals: Ovaries / Concentration Ratio; Adrenals: Testes / Concentration Ratio; Adrenals: Blood: rats; for Concentration Ratio; Adrenals: Blood: 8640 min
Procedure: The tissue distribution and target to non-target concentration ratios for seven compounds were studied in male and female rats (150-180 g) of the C.F.Y. strain. Each compound (in a volume of 0.3ml) was injected via the tail vein into two male and two female rats. The animals were then housed in separate metabolism cages prior to sacrifice and dissecting on the sixth day post-injection.

[6] = Adrenal uptake of 75Se in patients with Cushing Syndrome (gamma camera scans); assay type: in vivo, humans
Procedure: as §1

[7] = 250μCi intravenous, female dog, 6th day
[8] = 250μCi intravenous, female dog, daily collection to 6th day

Question: Which “concentration in / uptake into human adrenal glands” value [1] does the source give for `C[75Se]C[C@]12CC[C@H](O)CC1=CC[C@@H]1[C@@H]2CC[C@]2(C)[C@@H]([C@H](C)CCCC(C)C)CC[C@@H]12` [19-methylselenocholesterol] here?
Answer: poor

Question: And the “concentration in the adrenal cortex” value ([1]; human)?
Answer: appears not to be concentrated in the adrenal cortex

Question: What about the “uptake into pheochromocytomas of human adrenal medullary tissue” value ([1]; some instances) of the same compound?
Answer: some instances have been cited of its uptake into pheochromocytomas

Question: What about the “concentration in rat adrenal tissue” value [2] of the same compound?
Answer: concentrated strongly in rat adrenal tissue

Question: Which results are given for `C[75Se]C[C@@H]1C[C@@H]2[C@H](CC[C@]3(C)[C@@H]([C@H](C)CCCC(C)C)CC[C@@H]23)C2=C1C[C@@H](O)CC2` [Example 1, 6β-methylselenomethyl-19-norcholest-5(10)-en-3β-ol-^75 Se]?
Answer: % dose kg/g, Adrenals [3, 7]: 7.240 % dose kg/g; % dose kg/g, Bile [3, 7]: 0.485 % dose kg/g; % dose kg/g, Blood [3, 7]: 0.066 % dose kg/g; % dose kg/g, Kidneys [3, 7]: 0.175 % dose kg/g; % dose kg/g, Liver [3, 7]: 0.143 % dose kg/g; % dose kg/g, Lungs [3, 7]: 0.164 % dose kg/g; % dose kg/g, Muscle [3, 7]: 0.042 % dose kg/g; % dose kg/g, Ovaries [3, 7]: 1.571 % dose kg/g; % dose kg/g, Spleen [3, 7]: 0.083 % dose kg/g; % dose kg/g, adrenal cortex [3, 7]: 9.925 % dose kg/g; % of dose, Adrenals [3, 7]: 0.622 % of dose; % of dose, Blood [3, 7]: 5.989 % of dose; % of dose, Kidneys [3, 7]: 0.712 % of dose; % of dose, Liver [3, 7]: 3.894 % of dose; % of dose, Lungs [3, 7]: 1.136 % of dose; % of dose, Ovaries [3, 7]: 0.303 % of dose; % of dose, Spleen [3, 7]: 0.528 % of dose; % of dose, Total Faeces [3, 8]: 27.691 % of dose; % of dose, Total Urine [3, 8]: 1.953 % of dose; concentration in the adrenal cortex ([3]; dogs): concentrates in the adrenal cortex; quality of adrenal scans compared with 19-iodocholesterol-131I ([4]; comparable cases with adrenal cortex adenomas or hyperplasia, smaller dose): equally good adrenal scans; visualization of adrenal glands and detection of adrenal cortex adenomas ([4]; humans): enabling their visualization and the detection of adrenal cortex adenomas; time after injection at which scans could be taken ([4]; p.i.): 2 to 3 days; dose giving equally good adrenal scans ([4]; per kg body weight, adrenal cortex adenomas or hyperplasia): 7 μCi/kg; % dose kg./g. in Ovaries [5]: 2.356 % dose kg./g.; % dose kg./g. in Adrenals [5]: 9.885 % dose kg./g.; % dose kg./g. in Blood [5]: 0.024 % dose kg./g.; % dose kg./g. in Kidneys [5]: 0.116 % dose kg./g.; % dose kg./g. in Liver [5]: 0.054 % dose kg./g.; % dose kg./g. in Muscle [5]: 0.023 % dose kg./g.; % dose kg./g. in Testes [5]: 0.044 % dose kg./g.; Concentration Ratio; Adrenals: Kidneys [5]: 91.9; Concentration Ratio; Adrenals: Liver [5]: 163.9; Concentration Ratio; Adrenals: Muscle [5]: 436.7; Concentration Ratio; Adrenals: Ovaries [5]: 4.5; Concentration Ratio; Adrenals: Testes [5]: 211.9; Concentration Ratio; Adrenals: Blood [5]: 433.1; 75Se uptake per gram of tissue in the adrenal adenoma ([6]; compared with 19-iodocholesterol-131I in five other adrenal cortex adenomas): higher than that of 19-iodocholesterol-^131 I; concentration in the adrenal glands ([6]; humans): concentrate in the adrenal glands of humans; maximum uptake in the left adrenal region ([6]; one patient with Cushing Syndrome, 500μCi intravenous, two weeks of scans): 17 μCi; 75Se uptake in each of both adrenal regions ([6]; other patient with Cushing Syndrome, 500μCi intravenous): 3 μCi; 75Se contained in removed adrenal cortex adenoma ([6]; same patient, adenoma weight 66 g, 500μCi intravenous): 15 μCi

Question: For `CCCC[75Se]C[C@@H]1C[C@@H]2[C@H](CC[C@]3(C)[C@@H]([C@H](C)CCCC(C)C)CC[C@@H]23)C2=C1C[C@@H](O)CC2` [Example 3, 6β-butylselenomethyl-19-norcholest-5(10)-en-3β-ol-^75 Se], which “% dose kg./g. in Ovaries” value [5] is on record?
Answer: 2.553 % dose kg./g.

Question: What about the “% dose kg./g. in Adrenals” value [5] of the same compound?
Answer: 7.563 % dose kg./g.

Question: And the “% dose kg./g. in Blood” value [5]?
Answer: 0.009 % dose kg./g.

Question: What about the “% dose kg./g. in Kidneys” value [5] of the same compound?
Answer: 0.052 % dose kg./g.

Question: What about the “% dose kg./g. in Liver” value [5] of the same compound?
Answer: 0.096 % dose kg./g.

Question: And the “% dose kg./g. in Muscle” value [5]?
Answer: 0.012 % dose kg./g.

Question: And the “% dose kg./g. in Testes” value [5]?
Answer: 0.023 % dose kg./g.

Question: And the “Concentration Ratio; Adrenals: Kidneys” value [5]?
Answer: 144.8

Question: And the “Concentration Ratio; Adrenals: Liver” value [5]?
Answer: 79.0

Question: What about the “Concentration Ratio; Adrenals: Muscle” value [5] of the same compound?
Answer: 809.6

Question: What about the “Concentration Ratio; Adrenals: Ovaries” value [5] of the same compound?
Answer: 4.0

Question: And the “Concentration Ratio; Adrenals: Testes” value [5]?
Answer: 268.3

Question: And the “Concentration Ratio; Adrenals: Blood” value [5]?
Answer: 581.9

Question: Which “% dose kg./g. in Ovaries” value [5] does the source give for `CC(C)CCC[C@@H](C)[C@H]1CC[C@H]2[C@@H]3C[C@@H](C[75Se]C4CCCCC4)C4=C(CC[C@H](O)C4)[C@H]3CC[C@]12C` [Example 4, 6β-cyclohexylselenomethyl-19-norcholest-5(10)-en-3β-ol-^75 Se] here?
Answer: 2.568 % dose kg./g.

Question: And the “% dose kg./g. in Adrenals” value [5]?
Answer: 3.609 % dose kg./g.

Question: And the “% dose kg./g. in Blood” value [5]?
Answer: 0.026 % dose kg./g.

Question: And the “% dose kg./g. in Kidneys” value [5]?
Answer: 0.038 % dose kg./g.

Question: And the “% dose kg./g. in Liver” value [5]?
Answer: 0.148 % dose kg./g.

Question: And the “% dose kg./g. in Muscle” value [5]?
Answer: 0.012 % dose kg./g.

Question: What about the “% dose kg./g. in Testes” value [5] of the same compound?
Answer: 0.034 % dose kg./g.

Question: And the “Concentration Ratio; Adrenals: Kidneys” value [5]?
Answer: 75.1

Question: And the “Concentration Ratio; Adrenals: Liver” value [5]?
Answer: 24.9

Question: And the “Concentration Ratio; Adrenals: Muscle” value [5]?
Answer: 303.1

Question: What about the “Concentration Ratio; Adrenals: Ovaries” value [5] of the same compound?
Answer: 1.6

Question: And the “Concentration Ratio; Adrenals: Testes” value [5]?
Answer: 89.8

Question: What about the “Concentration Ratio; Adrenals: Blood” value [5] of the same compound?
Answer: 137.4
